Values joined by “and” are separate entries in the source; they are usually repeats but may differ in a detail not shown here. Equal values may be shown once.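 The compound was tested at five concentrations on cells cultured in 96-well plates, with a 48-hour exposure period. Abbreviation: GI50, concentration required for 50% inhibition of growth. TGI is the concentration that stops growth completely.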

Drawing on PubChem BioAssay (NCI), this text covers GI50 and TGI for ten compounds.

Test systems include A549 NSCLC; NCI-H522 lung; SN12C renal; HS 578T breast; LOX IMVI melanoma; SK-MEL-2 melanoma; KM12 colon; UACC-62 melanoma.
Common to all, as to experiment: growth of human tumour cells (NCI), 48 h

`O=C(O)c1cc2c(c3ccsc13)-c1ccccc1CC2`: the GI50 in the assay on A549 NSCLC was 36.1 µM; with NCI-H522 lung, 29 µM; in the assay on SN12C renal it was 32.1 µM; in the assay with HS 578T breast, 30.5 µM; with LOX IMVI melanoma, 40.8 µM; in the assay on SK-MEL-2 melanoma, 26.5 µM. The GI50 in the assay with KM12 colon was 34.3 µM; with UACC-62 melanoma, 33.9 µM. Besides, the TGI in the assay on A549 NSCLC was over 100 µM; with NCI-H522 lung, 82.1 µM; in the assay on SN12C renal it was over 100 µM; in the assay on HS 578T breast, 88.9 µM; in the assay on LOX IMVI melanoma, over 100 µM; in the assay with SK-MEL-2 melanoma, 87.5 µM. Also, the TGI in the assay on KM12 colon and with UACC-62 melanoma was over 100 µM throughout.

For `C[C@H]1CC2=CC(=O)CC[C@]2(C)[C@H]2CC[C@@]3(C)[C@@H](CC[C@]3(C)O)[C@H]12`, the GI50 with A549 NSCLC is 31.9 µM; with NCI-H522 lung it was 28.4 µM; in the assay on SN12C renal it was 41.6 µM; in the assay with HS 578T breast it was 30.7 µM; in the assay on LOX IMVI melanoma, 29.2 µM; in the assay on SK-MEL-2 melanoma it was 15.4 µM. The GI50 is 27.5 µM in the assay on KM12 colon and 22.2 µM with UACC-62 melanoma. Further, the TGI is over 100 µM with A549 NSCLC; 75.5 µM with NCI-H522 lung; over 100 µM in the assay with SN12C renal; over 89 µM in the assay on HS 578T breast; over 100 µM with LOX IMVI melanoma; 37.4 µM in the assay on SK-MEL-2 melanoma. Moreover, the TGI in the assay with KM12 colon was over 75.4 µM; in the assay with UACC-62 melanoma, over 67 µM.

Consider `Cc1nn2c(/C=C3\C(=O)Nc4ccccc43)c(C)nc2s1`, for which the GI50 in the assay with A549 NSCLC is 32.7 µM; in the assay with NCI-H522 lung it was 18.5 µM; with SN12C renal, over 100 µM; in the assay with HS 578T breast, 78 µM; in the assay with LOX IMVI melanoma, 97.1 µM; with SK-MEL-2 melanoma, 27.6 µM. The GI50 in the assay with KM12 colon is 6.4 µM; in the assay on UACC-62 melanoma, 35.5 µM. Besides, the TGI with A549 NSCLC, in the assay with NCI-H522 lung, in the assay on SN12C renal, in the assay on HS 578T breast, in the assay with LOX IMVI melanoma and in the assay on SK-MEL-2 melanoma was over 100 µM throughout. The TGI in the assay with KM12 colon and in the assay with UACC-62 melanoma was over 100 µM throughout.

As to `CC(=O)NS(=O)(=O)c1ccc(-n2nc(-c3ccccc3)cc2C2=CC(=O)C=CC2=O)cc1`, the GI50 was over 100 µM with A549 NSCLC; over 100 µM in the assay on NCI-H522 lung; over 100 µM with SN12C renal; 22.3 µM in the assay with HS 578T breast; over 100 µM with LOX IMVI melanoma; over 100 µM in the assay on SK-MEL-2 melanoma. Further, the GI50 in the assay with KM12 colon and in the assay with UACC-62 melanoma was over 100 µM each time. The TGI in the assay on A549 NSCLC, in the assay on NCI-H522 lung, in the assay on SN12C renal, in the assay on HS 578T breast, with LOX IMVI melanoma and with SK-MEL-2 melanoma was over 100 µM throughout. Further, the TGI with KM12 colon and in the assay with UACC-62 melanoma was over 100 µM each time.

Turning to `CC1(C)N=C(N)N=C(N)N1c1ccc(OCCCCNC(=O)c2ccc(S(=O)(=O)F)cc2)c(Cl)c1`, the GI50 in the assay with A549 NSCLC was 4.17 µM; in the assay on NCI-H522 lung, 10.5 µM; in the assay with SN12C renal, 4.47 µM; in the assay with HS 578T breast it was over 100 µM; in the assay with LOX IMVI melanoma it was 1.9 µM; with SK-MEL-2 melanoma, 77.2 µM. Further, the GI50 in the assay with KM12 colon is 8.04 µM; with UACC-62 melanoma it was 4.27 µM. The TGI in the assay with A549 NSCLC, in the assay on NCI-H522 lung, with SN12C renal, in the assay with HS 578T breast, in the assay on LOX IMVI melanoma and in the assay on SK-MEL-2 melanoma was over 100 µM in each case. The TGI with KM12 colon and with UACC-62 melanoma was over 100 µM each time.

For the compound `O=C(Nc1ccccc1C(=O)Nc1nccs1)c1ccccc1`, the TGI in the assay on A549 NSCLC, in the assay on NCI-H522 lung, with SN12C renal, with HS 578T breast, with LOX IMVI melanoma and with SK-MEL-2 melanoma was over 100 µM in each case. The TGI in the assay with KM12 colon and with UACC-62 melanoma was over 100 µM throughout.

Consider `C=C1C[C@@H]2[C@H](CC[C@]3(C)C(=O)CC[C@@H]23)[C@@]2(C)C=CC(=O)C=C12`, for which the GI50 was 11.5 µM in the assay with A549 NSCLC; 8.79 µM in the assay with NCI-H522 lung; 21 µM in the assay on SN12C renal; 25.1 µM in the assay with HS 578T breast; 19.2 µM in the assay on LOX IMVI melanoma; 30.7 µM in the assay on KM12 colon. Also, the GI50 in the assay with UACC-62 melanoma was 8.11 µM. Besides, the TGI is over 51.8 µM with A549 NSCLC; over 38.8 µM in the assay on NCI-H522 lung; over 63.5 µM in the assay with SN12C renal; over 77.2 µM in the assay with HS 578T breast; 45.5 µM in the assay on LOX IMVI melanoma; over 28.3 µM in the assay on SK-MEL-2 melanoma. Also, the TGI is over 70 µM with KM12 colon and 30 µM with UACC-62 melanoma.

Take `CS(=O)(=O)Nc1cc(-c2ccc3ncnc(Nc4cccc(Cl)c4F)c3c2)cnc1Cl`: the GI50 was 5.3 µM in the assay on A549 NSCLC; 3 µM in the assay on NCI-H522 lung; 3.89 µM with SN12C renal; 0.274 µM in the assay on HS 578T breast; 1.58 µM with LOX IMVI melanoma; 2.13 µM in the assay on SK-MEL-2 melanoma. In addition, the GI50 in the assay on KM12 colon was 4.32 µM; with UACC-62 melanoma, 1.76 µM. The TGI in the assay with A549 NSCLC stood at 24.1 µM; in the assay on NCI-H522 lung, 17 µM; with SN12C renal, 41.2 µM; with HS 578T breast it was 2.77 µM; with LOX IMVI melanoma, 5.45 µM; with SK-MEL-2 melanoma it was 6.79 µM. The TGI with KM12 colon was found to be 16.5 µM; in the assay with UACC-62 melanoma it was 11.7 µM.

On to `O=[N+]([O-])c1ccc(NC(=S)N/N=C(\c2ccccc2)c2ccccn2)cc1`, for which the TGI with A549 NSCLC was 3.37 µM and 3.96 µM; with NCI-H522 lung, 4.2 µM and 1.48 µM; in the assay with SN12C renal, 2.83 µM; with HS 578T breast, 9.39 µM; with LOX IMVI melanoma it was 2.89 µM and 5.03 µM; in the assay on SK-MEL-2 melanoma, 4.44 µM and 3.69 µM. Also, the TGI with KM12 colon is 3.35 µM and 4.12 µM; in the assay on UACC-62 melanoma it was 2.92 µM. Besides, the GI50 in the assay with NCI-H522 lung is 1.97 µM; in the assay with LOX IMVI melanoma, 1.37 µM; with SK-MEL-2 melanoma, 2.05 µM; in the assay with UACC-62 melanoma, 3.4 µM.

As for `S=c1[nH]nc(SCc2ccccc2Cl)c2[nH]cnc12`, the TGI in the assay on A549 NSCLC, with NCI-H522 lung, in the assay on SN12C renal, in the assay on HS 578T breast, with LOX IMVI melanoma and in the assay on SK-MEL-2 melanoma was over 100 µM throughout. The TGI with KM12 colon and in the assay with UACC-62 melanoma was over 100 µM each time.
